24 compounds from PubChem BioAssay (NCI) can be followed below.

What all share (assay): NCI-60 cell line screen, 48 h
Test [1] relates to U251 CNS.
Test [2] deals with A498 renal.
The test system of test [3] is LOX IMVI melanoma.
Test [4] relates to M19-MEL melanoma.
Test [5] deals with MOLT-4 leukemia.
For test [6], the system named is DLD-1 colon.
Test [7] has as its system NCI-H522 lung.
In test [8] the test system is KM20L2 colon.
In test [9] the test system is SNB-78 CNS.
Test [10] relates to MDA-MB-231 breast.
Test [11] relates to DU-145 prostate.
In test [12] the test system is HS 578T breast.

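Five compound concentrations were applied to cells in 96-well plates for 48 hours; endpoints were derived by simple linear interpolation of the resulting dose-response curve. TGI marks complete inhibition of growth.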

Regarding `N/C(=N\N=C\c1ncccc1O)NO`, the TGI was greater than 100 µM in [1]; greater than 100 µM in test [2]; greater than 100 µM in test [3]; greater than 78.6 µM in test [4]; greater than 64.4 µM in [5]; greater than 100 µM in test [6]. For the same compound, the results for the TGI in test [7], in [8] and in test [9] were 87.9 µM, greater than 100 µM and greater than 100 µM, respectively.
Regarding `O=c1c2ccccc2nc2ccc3c(Cl)[nH][nH]c3c12`, the TGI in test [1] is greater than 100 µM; in test [2], greater than 100 µM; in [3], 58.3 µM; in test [4], greater than 100 µM; in [5], greater than 79 µM; in test [6], greater than 100 µM. For the same compound, the TGI in [7] was greater than 83.1 µM; in [8], greater than 100 µM; in test [9] it was greater than 100 µM.
In the case of `Cc1c2ccncc2c(C)c2c1[nH]c1ccc(OCCN(C)C)cc12`, the TGI in test [1] came to 0.946 µM; in [2], 2.77 µM; in test [3], 0.396 µM; in [4], 2.17 µM; in test [5] it was 0.157 µM; in [6] it was 0.718 µM. Besides, the TGI in [7] came out at 1.16 µM; in test [8], 1.18 µM; in test [9], 3.2 µM.
`COc1nc(C#CC2CCCCC2)nc(OC)n1`: the TGI in test [10] is 13.2 µM; in [1], 16.7 µM; in test [2], 37.2 µM; in test [3], 8.69 µM; in [11], 14.6 µM; in test [12], 17.7 µM. The TGI in test [5] is greater than 100 µM; in test [7], 6.33 µM.
On to `CC1CCC2(OC1)OC1C(O)C3C4CCC5CC(OC6OC(CO)C(OC7OC(CO)C(O)C(OC8OCC(O)C(O)C8O)C7OC7OC(CO)C(O)C(OC8OC(CO)C(O)C(O)C8O)C7O)C(O)C6O)C(O)CC5(C)C4CCC3(C)C1C2C` (stereo not given), for which the TGI came out at 4.3 µM in [10]; 10.2 µM in test [1]; 46.6 µM in test [2]; 12.1 µM in test [3]; 4.63 µM in test [11]; 4.5 µM in test [12]. The TGI in test [5] worked out at 15.1 µM; in test [7], 3.79 µM.
For `CCOC1=C(c2ccccc2)N2CCCCC2O1` (stereo not given), the TGI was greater than 48.5 µM in test [10]; greater than 100 µM in test [1]; 32.2 µM in test [2]; 13.8 µM in test [3]; greater than 86.8 µM in test [11]; 33.1 µM in test [12]. For the same compound, the TGI in test [5] is greater than 73 µM; in test [7] it was 13.4 µM.
Regarding `C#CCOC(=O)c1ccc(OC(C)=O)cc1`, the TGI in test [10], in test [1], in test [2], in test [3], in [11] and in test [12] was greater than 100 µM throughout. The TGI in test [5] and in [7] was greater than 100 µM each time.
Regarding `Cc1c([C@H](C)[C@@H]2NC[C@@H](C)C[C@H]2O)ccc2c1C[C@H]1[C@H]2CC=C2C[C@@H](O)CC[C@@]21C`, the TGI in [10] is 35.4 µM; in [1], 30.3 µM; in [2] it was 33.6 µM; in [3], 27 µM; in test [11] it was greater than 100 µM; in test [12], 66.6 µM. Moreover, the TGI in [5] stood at 37.4 µM; in [7], 36.6 µM.
In the case of `O=[Se](O)O`, the TGI in test [10] was 3.05 µM; in [1], 2.82 µM; in test [2], greater than 100 µM; in test [3], greater than 100 µM; in [11], 10.8 µM; in test [12], greater than 100 µM. Besides, the figures for the TGI in test [5] and in test [7] were greater than 100 µM and 39 µM, respectively.
For `CC1(C)CC[C@]2(C(=O)O)CC[C@]3(C)[C@H](C(=O)C=C4[C@@]5(C)C=C(C#N)C(=O)C(C)(C)[C@@H]5CC[C@]43C)[C@@H]2C1`, the TGI came out at 7.34 µM in [10]; 3.01 µM in test [1]; 0.977 µM in [2]; 1.1 µM in test [3]; 2.39 µM in test [11]; 10.4 µM in test [12]. For the same compound, the TGI in test [5] was determined as 13.9 µM; in test [7] it was 5.48 µM.
With `CCN(CC)C(=O)CCN1CC1`, the TGI in [10], in [1], in test [2], in [3], in test [11] and in test [12] was greater than 10 µM each time. The TGI in test [5] and in test [7] was greater than 10 µM each time.
Consider `CC(CNC(N)=O)NC(N)=O` (stereo not given), for which the TGI in test [10], in test [1], in test [2], in [3], in test [11] and in [12] was greater than 100 µM throughout. Besides, the TGI in test [5] and in [7] was greater than 100 µM each time.
In the case of `COC1=CC(=O)N(C)C(O)C1(C#N)OC1OC(CO)C(O)C(O)C1O` (stereo not given), the TGI in test [10], in test [1], in test [2], in [3], in [11] and in test [12] was greater than 100 µM each time. For the same compound, the TGI in test [5] and in test [7] was greater than 100 µM each time.
Consider `CC(=O)OC[C@H]1On2nnnc2[C@H](OC(C)=O)[C@@H](OC(C)=O)[C@@H]1OC(C)=O`, for which the TGI in [10], in test [1], in [2], in [3], in test [11] and in test [12] was greater than 100 µM each time. For the same compound, the TGI in [5] and in test [7] was greater than 100 µM throughout.
`NCCSCCC(=O)O`: the TGI is greater than 100 µM in test [10]; greater than 67.4 µM in test [1]; 99.5 µM in [2]; greater than 93.7 µM in test [3]; greater than 100 µM in [11]; greater than 100 µM in test [12]. Besides, the TGI in test [5] and in test [7] was greater than 100 µM throughout.
In the case of `COC(=O)Nc1nc2ccc(NC(=O)c3ccc(I)cc3)cc2[nH]1`, the TGI in test [10], in test [1], in test [2], in test [3], in test [11] and in test [12] was greater than 100 µM in each case. For the same compound, the TGI in test [5] and in [7] was greater than 100 µM each time.
Turning to `O=c1[nH]nc(Cc2ccc(Cl)cc2)n1/N=C/c1ccc([N+](=O)[O-])o1`, the TGI was greater than 34.7 µM in test [10]; greater than 34.4 µM in test [1]; 14.1 µM in [2]; greater than 24.8 µM in [3]; greater than 36.7 µM in test [11]; 8.24 µM in test [12]. In addition, the figures for the TGI in [5] and in [7] were greater than 26.6 µM and 4.18 µM, respectively.
Consider `COc1ccc(Oc2ccccc2N)cc1`, for which the TGI in test [1] was 38.6 µM; in test [2], greater than 100 µM; in test [3] it was greater than 100 µM; in test [4] it was greater than 100 µM; in [5], greater than 100 µM; in test [6], greater than 100 µM. Besides, the TGI in test [8] and in test [9] was greater than 100 µM throughout.
Turning to `NC(N)=NC1C(O)C(O)C(O)C(N=C(N)N)C1O` (stereo not given), the TGI in [10], in test [1], in test [2], in test [3], in test [11] and in test [12] was greater than 100 µM each time. The TGI in [5] and in test [7] was greater than 100 µM in each case.
Consider `Cc1nc(Nc2ccccc2Cl)sc1C(=O)CC(=O)C(N)=O`, for which the TGI is greater than 100 µM in [10]; greater than 100 µM in test [1]; 66.7 µM in test [2]; greater than 100 µM in test [3]; greater than 100 µM in [11]; greater than 100 µM in test [12]. Moreover, the TGI is greater than 100 µM in test [5] and 6.79 µM in test [7].
Take `CC(C)(C)C1=C(Br)C(O)(C(C)(C)C)OP1(=O)c1ccccc1` (stereo not given): the TGI in [10], in test [1], in [2], in test [3], in test [11] and in test [12] was greater than 100 µM in each case. Besides, the TGI in test [5] and in test [7] was greater than 100 µM each time.
`CCC(=O)OC1CCn2c1nc1c2C(=O)C(C)=C(NC(C)=O)C1=N` (stereo not given): the TGI was determined as 17.2 µM in test [1]; 4.21 µM in test [2]; 3 µM in test [3]; 0.365 µM in test [4]; 3.19 µM in [6]; 2.79 µM in [7]. Besides, the TGI in test [8] came out at 3.38 µM; in [9], 6.05 µM.
As for `CC(C)Oc1cccc(N2C(Nc3ccccc3)=Nc3ccncc3S2(=O)=O)c1`, the TGI in test [10] is greater than 100 µM; in [1] it was greater than 100 µM; in test [2] it was 79.9 µM; in test [3], 38.5 µM; in test [11], greater than 100 µM; in test [12], greater than 100 µM. Besides, the TGI in [5] and in [7] was greater than 100 µM each time.
For `COc1cc2nc(-c3cccs3)nc(Nc3cccc(Cl)c3)c2cc1OC`, the TGI in [10], in [1], in test [2], in [3], in test [11] and in test [12] was greater than 100 µM each time. The TGI in [5] and in [7] was greater than 100 µM throughout.
